{"source": "paper PMC6138628", "about": "“Enhanced uptake of gH625 by blood brain barrier compared to liver in vivo: characterization of the mechanism by an in vitro model and implications for delivery” (Scientific Reports, 2018)", "key": {"[1]": {"experiment": "Tryptophan quenching by acrylamide in buffer", "type": "physicochemical", "conditions": "no LUVs, peptide 4 µM, acrylamide up to 0.2 M, λex 295 nm, λem 340 nm", "method": "A solution containing 4 µM of gH625 in the absence or presence of LUVs at a peptide/lipid molar ratio of 1/200, was titrated with the water-soluble quencher acrylamide (4 M mother solution). The maximal concentration of acrylamide in the samples is 0.2 M. Fluorescence was measured with λex 295 nm and λem 340 nm[43]. The data were analysed with the Stern-Volmer equation[43], F0/F = 1 + Ksv [Q], where F0 and F represent the fluorescence intensities in the absence and the presence of the quencher (Q), respectively. The Ksv is the Stern-Volmer quenching constant, and is correlated to the accessibility of the tryptophan residue to acrylamide. […] Ksv is thus determined by the amount of non-lipid-associated free peptide as well as the peptide fraction located on the surface of the bilayer.\nThe observed changes in the tryptophan emission upon binding to lipid vesicles indicate gH625 insertion into the hydrophobic region of the bilayers. We determined the accessibility of the tryptophan residues of membrane bound peptides towards acrylamide, a neutral, water-soluble quencher, which is unable to penetrate into the hydrophobic core of the lipid bilayer. In fact, tryptophan residues more deeply buried inside the membrane are less strongly quenched."}, "[2]": {"design": "method as in PMID 25792823", "conditions": "after 3.5 h of incubation in serum; cited from earlier work"}, "[3]": {"experiment": "Tryptophan fluorescence, binding isotherm and partition coefficient", "type": "physicochemical", "conditions": "peptide 4 µM, λex 295 nm", "method": "Emission spectra of the tryptophan contained in the peptide (4 µM) in the absence or presence of target vesicles were recorded between 300 and 400 nm with λex 295 nm in order to determine the presence of the peptide inside the membrane. To establish the strength of peptide-lipid interaction, LUVs were added to the peptide solution (4 µM) and the fluorescence intensity was recorded as a function of the lipid/peptide molar ratio (L/P), in three to four separate experiments. The results were corrected for the dilution factor. We used an L/P ratio of 200:1. […] F∞ was obtained by extrapolation of a double reciprocal plot of the total peptide fluorescence vs the total lipid concentration in the outer leaflet. The fraction of membrane-bound peptide, fb, was determined by fb = (F − F0)/(F∞ − F0), where F represents the fluorescence of peptide after the addition of the vesicles and F0 represents the fluorescence of the unbound peptide. fb allowed us to calculate the equilibrium concentration of the free peptide in the solution, Cf, and the extent of peptide binding Xb. […]\nThe presence of a tryptophan residue in the middle of the sequence of gH625, allowed the evaluation of the degree of peptide penetration into liposomes of different composition. In particular, we compared the fluorescence emission spectra in vesicles mimicking the BBB and the liver with that in buffer. […]"}}, "note": "Residues, ends and D or L forms follow the SMILES beside them."}
{"smiles": "CC[C@H](C)[C@H](NC(=O)[C@H](CC(C)C)NC(=O)[C@H](C)NC(=O)[C@H](CC(N)=O)NC(=O)[C@H](Cc1ccc(O)cc1)NC(=O)[C@H](Cc1c[nH]cn1)NC(=O)[C@H](C)NC(=O)[C@H](Cc1c[nH]c2ccccc12)NC(=O)[C@H](CCCNC(=N)N)NC(=O)[C@@H](NC(=O)[C@H](CC(C)C)NC(=O)[C@@H](NC(=O)[C@H](CO)NC(=O)[C@H](C)NC(=O)[C@H](CC(C)C)NC(=O)CNC(=O)[C@@H](N)Cc1c[nH]cn1)[C@@H](C)O)[C@@H](C)O)C(=O)N[C@@H](CCCNC(=N)N)C(=O)N[C@@H](C)C(=O)N[C@@H](Cc1ccccc1)C(N)=O", "note": "[gH625] (H-HGLASTLTRWAHYNALIRAF-NH2)", "values": [{"measurement": "Stern-Volmer quenching constant (Ksv)", "setting": "[1]", "value": "10.21 ± 0.15", "unit": "M⁻¹"}, {"measurement": "Serum stability, intact peptide", "setting": "[2]", "value": "significant amount of intact peptide"}, {"measurement": "Tryptophan fluorescence emission (intensity increase, blue shift): penetration into bilayer", "setting": "[3]; BBB mimicking LUVs vs buffer", "value": "capable of penetrating both lipid bilayers"}, {"measurement": "Tryptophan fluorescence emission (intensity increase, blue shift): penetration into bilayer", "setting": "[3]; liver mimicking LUVs vs buffer", "value": "capable of penetrating both lipid bilayers"}]}
